Measured values as given in patent US11702419B2, “Heterocyclic compound and use thereof” (Takeda Pharmaceutical Company Limited, priority 2018, dated 2023).

Target: T1, NMDA receptor composed of four subunits consisting of two sets of heterodimers of NR1 and NR2B (human GRIN1 and GRIN2B-expressing HEK293 cells) (Homo sapiens, UniProt Q13224)
T1 construct: host or cells: HEK293 (tetracycline-inducible expression)
Experiment: NR2B Ca2+ influx assay
Format: cell-based
Conditions: 10 μM compound, glutamic acid/glycine-induced Ca2+ influx, FLIPR, read-out: inhibitory rate (10 μM compound concentration)
Protocol: In order to confirm an “antagonistic action on an NMDA receptor containing the NR2B subunit” which the compound of the present invention has, inhibitory effect on the NMDA receptor activation was evaluated using “NMDA receptor composed of four subunits consisting of two sets of heterodimers of NR1 and NR2B”-expressing human fetal renal cells, specifically human glutamate ionotropic receptor NMDA type subunit 1 (GRIN1) and human glutamate ionotropic receptor NMDA type subunit 2B (GRIN2B)-expressing HEK293 cells.
As an index of the NMDA receptor activation, intracellular calcium ion (Ca^2+) influx caused by bonding of glycine and glutamate to NR1 and NR2B respectively was used. HEK293 cells were purchased from ChanTest. The cells were cultured in a DMEM/F-12 (COSMO BIO, 10-092-CM) medium containing 10% FBS (fetal bovine serum, AusGene), 100 units/mL penicillin, 100 μg/mL streptomycin, 500 μg/mL neomycin, 100 μg/mL Zeocin and 5 μg/mL Blasticidin at 37° C., 5% CO2. The cells were detached from flask with trypsin the day before the assay, suspended in a seeding medium (DMEM (Invitrogen, 31053) containing 10% FBS, 100 units/mL penicillin and 100 μg/mL streptomycin) at 8×10^5 cells/mL, seeded by 25 μL per well in a 384-well plate (Falcon, 356663) at 20000 cells/well, and cultured overnight in an incubator. On the day of the assay, tetracycline (Wako Pure Chemical Industries, 209-16561) was diluted with the seeding medium at 2 μg/mL, and the dilution was added at 25 μL/well to the plate seeded with the cells, and the cells were cultured for 2 hr in an incubator. Thereafter, the medium was removed, and the cells were washed with 50 μL/well of assay buffer (137 mM NaCl, 4 mM KCl, 1.8 mM CaCl2, 10 mM HEPES (pH 7.2), 10 mM Glucose, and 0.1% BSA). Then, a loading buffer (assay buffer containing 2.5 μM Fluo-4AM, 2 mM Amaranth and 1 mM Tartrazine) was added thereto at 25 μL/well, and loading was performed in the incubator for 30 min, and then at room temperature for 15 min. The test compound was diluted with the above-mentioned assay buffer so as to adjust the concentration to 30 μM, the obtained solution (25 μL) was added thereto (the final concentration 10 μM), and the cells were stood for 15 min at room temperature. Using FLIPR (Molecular Devices), 25 μL of an assay buffer containing 30 μM glutamic acid and 30 μM glycine was added thereto, and the fluorescence signal was measured every 3 seconds for 5 min. The relative activity value (inhibitory rate) was calculated when the cumulative total value of the fluorescence value of a well added with a buffer free of glutamic acid and glycine, relative to the cumulative total value of the fluorescence value of each well are regarded as 100% inhibition. The obtained value was evaluated as an inhibitory activity.

T1 sequence (Q13224 27-1484, other chains not shown): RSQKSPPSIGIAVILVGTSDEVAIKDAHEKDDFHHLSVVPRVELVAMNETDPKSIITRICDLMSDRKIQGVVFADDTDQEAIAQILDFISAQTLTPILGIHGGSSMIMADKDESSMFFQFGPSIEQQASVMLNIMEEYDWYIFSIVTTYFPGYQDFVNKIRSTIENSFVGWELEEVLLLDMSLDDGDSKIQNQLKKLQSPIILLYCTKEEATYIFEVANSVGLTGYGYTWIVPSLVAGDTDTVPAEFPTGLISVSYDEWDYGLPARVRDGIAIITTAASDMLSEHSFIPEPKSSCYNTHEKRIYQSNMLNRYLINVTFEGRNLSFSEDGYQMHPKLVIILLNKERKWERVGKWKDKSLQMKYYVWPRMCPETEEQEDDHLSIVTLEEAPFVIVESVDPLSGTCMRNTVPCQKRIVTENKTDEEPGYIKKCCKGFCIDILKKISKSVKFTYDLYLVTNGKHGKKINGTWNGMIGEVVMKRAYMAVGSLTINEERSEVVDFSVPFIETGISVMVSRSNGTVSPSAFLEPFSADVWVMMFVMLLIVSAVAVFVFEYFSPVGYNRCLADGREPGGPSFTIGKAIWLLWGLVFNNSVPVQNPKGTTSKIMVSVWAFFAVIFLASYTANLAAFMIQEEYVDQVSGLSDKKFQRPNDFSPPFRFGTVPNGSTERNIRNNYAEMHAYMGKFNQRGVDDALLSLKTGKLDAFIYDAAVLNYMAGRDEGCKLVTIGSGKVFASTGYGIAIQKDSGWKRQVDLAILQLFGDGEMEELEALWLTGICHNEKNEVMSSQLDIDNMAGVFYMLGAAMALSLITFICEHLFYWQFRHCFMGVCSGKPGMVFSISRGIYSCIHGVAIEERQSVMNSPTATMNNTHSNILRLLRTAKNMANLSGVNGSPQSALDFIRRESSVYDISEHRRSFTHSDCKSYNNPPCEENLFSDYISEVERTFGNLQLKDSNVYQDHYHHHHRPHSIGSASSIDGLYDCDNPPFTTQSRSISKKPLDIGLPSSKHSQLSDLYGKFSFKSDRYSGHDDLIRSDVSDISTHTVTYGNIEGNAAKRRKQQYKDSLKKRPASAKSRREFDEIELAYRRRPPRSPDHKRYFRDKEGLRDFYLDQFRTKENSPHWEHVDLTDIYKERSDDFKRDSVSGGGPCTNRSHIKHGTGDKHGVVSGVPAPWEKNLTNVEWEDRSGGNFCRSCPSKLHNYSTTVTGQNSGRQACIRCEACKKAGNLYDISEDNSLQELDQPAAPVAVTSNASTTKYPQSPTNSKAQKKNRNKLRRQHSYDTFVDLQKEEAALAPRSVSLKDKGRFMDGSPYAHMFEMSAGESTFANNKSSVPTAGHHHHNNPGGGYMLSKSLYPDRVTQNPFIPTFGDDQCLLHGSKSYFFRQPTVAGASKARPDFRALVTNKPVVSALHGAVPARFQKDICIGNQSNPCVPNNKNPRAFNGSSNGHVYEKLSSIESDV

Going from `Cc1ccnn2ncc(CNC(=O)c3cnc(OC(F)F)c(F)c3)c12` [Example 37, 6-(difluoromethoxy)-5-fluoro-N-((4-methylpyrazolo[1,5-b]pyridazin-3-yl)methyl)nicotinamide] to `O=C(NCc1cnn2ccncc12)c1cnc(OC(F)F)c(F)c1` [Example 45, 6-(difluoromethoxy)-5-fluoro-N-(pyrazolo[1,5-a]pyrazin-3-ylmethyl)nicotinamide], the inhibition at 10 µM falls from 96% to 92%.

Compared with `COc1ncc(C(=O)NCc2cnn3ccn(C)c23)cc1F` [Example 61, 5-fluoro-6-methoxy-N-((1-methyl-1H-imidazo[1,2-b]pyrazol-7-yl)methyl)nicotinamide], `Cn1ccn2ncc(CNC(=O)c3ccc(Cl)c(F)c3)c12` [Example 63, 4-chloro-3-fluoro-N-((1-methyl-1H-imidazo[1,2-b]pyrazol-7-yl)methyl)benzamide] is higher in inhibition at 10 µM: 88% for the first, 96% for the second.

Going from `COc1ncc(C(=O)NCc2cnn3ncccc23)cc1Cl` [Example 9, 5-chloro-6-methoxy-N-(pyrazolo[1,5-b]pyridazin-3-ylmethyl)nicotinamide] to `O=C(NCc1cnn2ncccc12)c1cnc(OC(F)F)c(Cl)c1` [Example 8, 5-chloro-6-(difluoromethoxy)-N-(pyrazolo[1,5-b]pyridazin-3-ylmethyl)nicotinamide], the inhibition at 10 µM rises from 87% to 97%.

Compared with `Cc1nn2ncc(CNC(=O)c3cnc(OC(F)F)c(Cl)c3)c2n1CC(F)F` [Example 77, 5-chloro-N-{[1-(2,2-difluoroethyl)-2-methyl-1H-pyrazolo[1,5-b][1,2,4]triazol-7-yl]methyl}-6-(difluoromethoxy)pyridine-3-carboxamide], `Cc1nn2ncc(CNC(=O)c3cnc(OC(F)F)c(Cl)c3)c2n1C(F)F` [Example 75, 5-chloro-6-(difluoromethoxy)-N-{[1-(difluoromethyl)-2-methyl-1H-pyrazolo[1,5-b][1,2,4]triazol-7-yl]methyl}pyridine-3-carboxamide] is higher in inhibition at 10 µM: 54% for the first, 91% for the second.

First: Cc1ccnn2nnc(CNC(=O)c3cnc(OC(F)F)c(Cl)c3)c12 [Example 54, 5-chloro-6-(difluoromethoxy)-N-((4-methyl[1,2,3]triazolo[1,5-b]pyridazin-3-yl)methyl)nicotinamide]
Second: O=C(NCc1nnn2ncccc12)c1cnc(OC(F)F)c(Cl)c1 [Example 22, 5-chloro-6-(difluoromethoxy)-N-([1,2,3]triazolo[1,5-b]pyridazin-3-ylmethyl)nicotinamide]
The inhibition at 10 µM of the first is lower: 79% for the first, 98% for the second.

Going from `Cc1nn2ncc(CNC(=O)c3cnc(OC(F)F)c(F)c3)c2n1C(F)F` [Example 74, 6-(difluoromethoxy)-N-{[1-(difluoromethyl)-2-methyl-1H-pyrazolo[1,5-b][1,2,4]triazol-7-yl]methyl}-5-fluoropyridine-3-carboxamide] to `O=C(NCc1cnn2ccn(C(F)F)c12)c1cnc(OC(F)F)c(F)c1` [Example 76, 6-(difluoromethoxy)-N-{[1-(difluoromethyl)-1H-imidazo[1,2-b]pyrazol-7-yl]methyl}-5-fluoropyridine-3-carboxamide], the inhibition at 10 µM falls from 90% to 87%.

`O=C(NCc1cnn2ccncc12)c1ccc(OC(F)F)c(F)c1` [Example 44, 4-(difluoromethoxy)-3-fluoro-N-(pyrazolo[1,5-a]pyrazin-3-ylmethyl)benzamide] and `O=C(NCc1nnn2ccccc12)c1ccc(OC(F)F)c(F)c1` [Example 35, 4-(difluoromethoxy)-3-fluoro-N-([1,2,3]triazolo[1,5-a]pyridin-3-ylmethyl)benzamide] are the same in inhibition at 10 µM: 94% for the first, 94% for the second.

First: CCn1ccn2ncc(CNC(=O)c3cnc(OC(F)F)c(Cl)c3)c12 [Example 84, 5-chloro-6-(difluoromethoxy)-N-[(1-ethyl-1H-imidazo[1,2-b]pyrazol-7-yl)methyl]pyridine-3-carboxamide]
Second: O=C(NCc1cnn2ccn(CC(F)F)c12)c1cnc(OC(F)F)c(Cl)c1 [Example 80, 5-chloro-N-[{1-(2,2-difluoroethyl)-1H-imidazo[1,2-b]pyrazol-7-yl]methyl}-6-(difluoromethoxy)pyridine-3-carboxamide]
The inhibition at 10 µM of the first is higher: 95% for the first, 91% for the second.

First: Cc1nn2cnccc2c1CNC(=O)c1cnc(OC(F)F)c(Cl)c1 [Example 56, 5-chloro-6-(difluoromethoxy)-N-((2-methylpyrazolo[1,5-c]pyrimidin-3-yl)methyl)nicotinamide]
Second: CCc1nn2ncccc2c1CNC(=O)c1cnc(OC(F)F)c(F)c1 [Example 26, 6-(difluoromethoxy)-N-((2-ethylpyrazolo[1,5-b]pyridazin-3-yl)methyl)-5-fluoronicotinamide]
The inhibition at 10 µM of the first is lower: 85% for the first, 90% for the second.

Going from `Cc1cccn2nnc(CNC(=O)c3ccc(OC(F)(F)F)cc3)c12` [Example 2, N-((4-methyl[1,2,3]triazolo[1,5-a]pyridin-3-yl)methyl)-4-(trifluoromethoxy)benzamide] to `O=C(NCc1nnn2cc(F)ccc12)c1ccc(OC(F)(F)F)cc1` [Example 1, N-((6-fluoro[1,2,3]triazolo[1,5-a]pyridin-3-yl)methyl)-4-(trifluoromethoxy)benzamide], the inhibition at 10 µM rises from 54% to 94%.

Going from `Cc1nn2ncc(CNC(=O)c3ccc(OC(F)(F)F)c(F)c3)c2n1C` [Example 71, N-[(1,2-dimethyl-1H-pyrazolo[1,5-b][1,2,4]triazol-7-yl)methyl]-3-fluoro-4-(trifluoromethoxy)benzamide] to `Cc1ccc2c(CNC(=O)c3ccc(OC(F)(F)F)c(F)c3)cnn2n1` [Example 11, 3-fluoro-N-((6-methylpyrazolo[1,5-b]pyridazin-3-yl)methyl)-4-(trifluoromethoxy)benzamide], the inhibition at 10 µM rises from 97% to 98%.

First: O=C(NCc1nnn2ccccc12)c1ccc(OC(F)F)c(Cl)c1 [Example 34, 3-chloro-4-(difluoromethoxy)-N-([1,2,3]triazolo[1,5-a]pyridin-3-ylmethyl)benzamide]
Second: O=C(NCc1nnn2ncccc12)c1ccc(OC(F)F)c(F)c1 [Example 33, 4-(difluoromethoxy)-3-fluoro-N-([1,2,3]triazolo[1,5-b]pyridazin-3-ylmethyl)benzamide]
The inhibition at 10 µM of the first is lower: 96% for the first, 97% for the second.

`O=C(NCc1nnn2ncccc12)c1ccc(OC(F)(F)F)c(Cl)c1` [Example 40, 3-chloro-N-([1,2,3]triazolo[1,5-b]pyridazin-3-ylmethyl)-4-(trifluoromethoxy)benzamide] and `O=C(NCc1nnn2ncccc12)c1ccc(OC(F)(F)F)c(F)c1` [Example 18, 3-fluoro-N-([1,2,3]triazolo[1,5-b]pyridazin-3-ylmethyl)-4-(trifluoromethoxy)benzamide] are the same in inhibition at 10 µM: 98% for the first, 98% for the second.

Compared with `O=C(NCc1nnn2ccncc12)c1ccc(OC(F)(F)F)c(F)c1` [Example 42, 3-fluoro-N-([1,2,3]triazolo[1,5-a]pyrazin-3-ylmethyl)-4-(trifluoromethoxy)benzamide], `Cc1cnn2nnc(CNC(=O)c3ccc(OC(F)(F)F)c(F)c3)c2c1` [Example 49, 3-fluoro-N-((5-methyl[1,2,3]triazolo[1,5-b]pyridazin-3-yl)methyl)-4-(trifluoromethoxy)benzamide] is higher in inhibition at 10 µM: 94% for the first, 98% for the second.

`Cc1nn2ncccc2c1CNC(=O)c1ccc(OC(F)(F)F)c(F)c1` [Example 10, 3-fluoro-N-((2-methylpyrazolo[1,5-b]pyridazin-3-yl)methyl)-4-(trifluoromethoxy)benzamide] and `Cc1cnn2ncc(CNC(=O)c3ccc(OC(F)(F)F)c(F)c3)c2c1` [Example 21, 3-fluoro-N-((5-methylpyrazolo[1,5-b]pyridazin-3-yl)methyl)-4-(trifluoromethoxy)benzamide] are the same in inhibition at 10 µM: 97% for the first, 97% for the second.

Going from `O=C(NCc1nnn2ncccc12)c1ccc(OC(F)(F)F)cc1` [Example 19, N-([1,2,3]triazolo[1,5-b]pyridazin-3-ylmethyl)-4-(trifluoromethoxy)benzamide] to `CCOc1nn2ncccc2c1CNC(=O)c1cnc(OC(F)F)c(F)c1` [Example 24, 6-(difluoromethoxy)-N-((2-ethoxypyrazolo[1,5-b]pyridazin-3-yl)methyl)-5-fluoronicotinamide], the inhibition at 10 µM falls from 96% to 70%.
